Measured values as given in patent US9902736B2, “1-oxo/acylation-14-acylated oridonin derivative, preparation method therefor and application thereof” (HANGZHOU BENSHENG PHARMACEUTICAL CO., LTD., priority 2012, dated 2018).
Converted amounts (≈) assume the structure as drawn.

What was measured:
RPMI 8226 = assay: Multiple myeloma cell growth inhibition, MTT, 72 h; assay type: cell-based; settings: Homo sapiens
Protocol: Multiple myeloma cell lines: RPMI8226 (multiple myeloma), purchased from Fuxiang Bio-tech Co. Ltd., Shanghai, China.
(§1) 6000 well-growing cells were obtained and inoculated into wells of a 96-well cell culture plate. […] On the next day, the 1-oxo/acylated-14-acylated oridonin derivatives of different concentrations were added and mixed uniformly. The plate was placed in a carbon dioxide cell incubator (5% CO2) at 37° C. and incubated for 72 hours. Then the viable cell concentration was determined by MTT method.

Kasumi-1 = assay: Leukemia cell growth inhibition, MTT, 72 h; assay type: cell-based; settings: Homo sapiens
Source text: (§2) Leukemia cell lines: leukemia cell lines: K562/adr (drug-resistant, chronic myeloid leukemia, CML), NB4 (acute promyelocytic leukemia, AML), Kasumi-1 (acute myeloid leukemia M2 type, AML-M2), Jurkat (acute lymphoblastic leukemia, ALL), all of which were donated by Cancer Research Institute of Zhejiang University, China; and H9 (acute lymphoblastic leukemia, ALL), which was purchased from China Center for Type Culture Collection.
as §1, with “6000 well-growing leukemia cells were” for “6000 well-growing cells were”, “C. and was incubated for” for “C. and incubated for”

K562/ADR = assay: Leukemia cell growth inhibition, MTT, 72 h; assay type: cell-based; settings: Homo sapiens
Source text: as §2
as §1, with “6000 well-growing leukemia cells were” for “6000 well-growing cells were”, “C. and was incubated for” for “C. and incubated for”

CaEs-17 = assay: Solid tumor cell growth inhibition, MTT, 72 h; assay type: cell-based; settings: Homo sapiens, CaEs17
Protocol: (§3) 6000 well-growing human solid tumor cells were obtained and inoculated into wells of a 96-well cell culture plate. The culture medium was DMEM High Glucose cell culture medium containing 10% fetal bovine serum. The plate was placed in a carbon dioxide cell incubator (5% CO2) at 37° C. and incubated for 24 hours. After added with 1-oxo/acylated-14-acylated oridonin derivatives of different concentration and mixed uniformly, the plate was placed in a carbon dioxide cell incubator (5% CO2) at 37° C. and incubated for 72 hours. Then the viable cell concentration was determined by MTT method.

Becap-37 = assay: Solid tumor cell growth inhibition, MTT, 72 h; assay type: cell-based; settings: Homo sapiens
Protocol: as §3

Hep G2 = assay: Solid tumor cell growth inhibition, MTT, 72 h; assay type: cell-based; settings: Homo sapiens, HepG2
Protocol: as §3

PC-3 = assay: Solid tumor cell growth inhibition, MTT, 72 h; assay type: cell-based; settings: Homo sapiens
Protocol: as §3

PANC-1 = assay: Solid tumor cell growth inhibition, MTT, 72 h; assay type: cell-based; settings: Homo sapiens
Protocol: as §3

SK-OV-3 = assay: Solid tumor cell growth inhibition, MTT, 72 h; assay type: cell-based; settings: Homo sapiens, SK-OV-3, 72 h, MTT; for IC50: read-out: IC50 SK-OV-3; for IC90: read-out: IC90 SK-OV-3
Protocol: as §3

MG-63 = assay: Solid tumor cell growth inhibition, MTT, 72 h; assay type: cell-based; settings: Homo sapiens
Protocol: as §3

A549 = assay: Solid tumor cell growth inhibition, MTT, 72 h; assay type: cell-based; settings: Homo sapiens
Protocol: as §3

U87-MG = assay: Solid tumor cell growth inhibition, MTT, 72 h; assay type: cell-based; settings: Homo sapiens, U-87 MG
Protocol: as §3

RKO = assay: Solid tumor cell growth inhibition, MTT, 72 h; assay type: cell-based; settings: Homo sapiens
Protocol: as §3

H9 = assay: Leukemia cell growth inhibition, MTT, 72 h; assay type: cell-based, human; settings: Homo sapiens, H9; 72 h, MTT
Source text: as §2
as §1, with “6000 well-growing leukemia cells were” for “6000 well-growing cells were”, “C. and was incubated for” for “C. and incubated for”

Jurkat = assay: Leukemia cell growth inhibition, MTT, 72 h; assay type: cell-based, human; settings: Homo sapiens, Jurkat; 72 h, MTT
Source text: as §2
as §1, with “6000 well-growing leukemia cells were” for “6000 well-growing cells were”, “C. and was incubated for” for “C. and incubated for”

NB4 = assay: Leukemia cell growth inhibition, MTT, 72 h; assay type: cell-based, human; settings: Homo sapiens, NB-4; 72 h, MTT
Source text: as §2
as §1, with “6000 well-growing leukemia cells were” for “6000 well-growing cells were”, “C. and was incubated for” for “C. and incubated for”

CNE = assay: Solid tumor cell growth inhibition, MTT, 72 h; assay type: cell-based, human; settings: Homo sapiens, CNE; 72 h, MTT
Protocol: as §3

Hep-2 = assay: Solid tumor cell growth inhibition, MTT, 72 h; assay type: cell-based, human; settings: Homo sapiens, HEp-2; 72 h, MTT
Protocol: as §3

MGC-803 = assay: Solid tumor cell growth inhibition, MTT, 72 h; assay type: cell-based, human; settings: Homo sapiens, MGC-803; 72 h, MTT
Protocol: as §3

Hela = assay: Solid tumor cell growth inhibition, MTT, 72 h; assay type: cell-based, human; settings: Homo sapiens, HeLa; 72 h, MTT
Protocol: as §3

Compound	IC50 (RPMI 8226) [mg/L]	IC90 (RPMI 8226) [mg/L]	IC50 (Kasumi-1) [mg/L]	IC90 (Kasumi-1) [mg/L]	IC50 (K562/ADR) [mg/L]	IC90 (K562/ADR) [mg/L]	IC50 (CaEs-17) [mg/L]	IC90 (CaEs-17) [mg/L]	IC50 (Becap-37) [mg/L]	IC90 (Becap-37) [mg/L]	IC50 (Hep G2) [mg/L]	IC90 (Hep G2) [mg/L]	IC50 (PC-3) [mg/L]	IC90 (PC-3) [mg/L]	IC50 (PANC-1) [mg/L]	IC90 (PANC-1) [mg/L]	IC50 (SK-OV-3) [mg/L]	IC90 (SK-OV-3) [mg/L]	IC50 (MG-63) [mg/L]	IC90 (MG-63) [mg/L]	other results
C=C1C(=O)[C@]23[C@H](OC(=O)c4cccc(C)c4)[C@H]1CC[C@H]2[C@@]12CO[C@@]3(O)[C@@H](O)[C@@H]1C(C)(C)CCC2=O [BS-OR-008]	0.37 (≈ 0.77 µM)	1.72 (≈ 3.58 µM)	0.73 (≈ 1.52 µM)	1.84 (≈ 3.83 µM)	0.52 (≈ 1.08 µM)	2.33 (≈ 4.85 µM)	1.22 (≈ 2.54 µM)	4.75 (≈ 9.88 µM)	1.08 (≈ 2.25 µM)	3.35 (≈ 6.97 µM)	1.74 (≈ 3.62 µM)	12.6 (≈ 26.2 µM)	1.59 (≈ 3.31 µM)	3.67 (≈ 7.64 µM)	1.73 (≈ 3.6 µM)	11.4 (≈ 23.6 µM)	1.59 (≈ 3.31 µM)	3.67 (≈ 7.64 µM)	0.42 (≈ 0.874 µM)	0.98 (≈ 2.04 µM)	IC50 (A549): 2.75 mg/L (≈ 5.72 µM); IC90 (A549): 6.86 mg/L (≈ 14.3 µM); IC50 (U87-MG): 0.86 mg/L (≈ 1.79 µM); IC90 (U87-MG): 2.4 mg/L (≈ 4.99 µM); IC50 (RKO): 0.47 mg/L (≈ 0.978 µM); IC90 (RKO): 0.94 mg/L (≈ 1.96 µM); IC50 (H9): 0.76 mg/L (≈ 1.58 µM); IC90 (H9): 1.79 mg/L (≈ 3.72 µM); IC50 (Jurkat): 0.73 mg/L (≈ 1.52 µM); IC90 (Jurkat): 2.6 mg/L (≈ 5.41 µM); IC50 (NB4): 0.29 mg/L (≈ 0.603 µM); IC90 (NB4): 0.92 mg/L (≈ 1.91 µM); IC50 (CNE): 2.16 mg/L (≈ 4.49 µM); IC90 (CNE): 10.5 mg/L (≈ 21.8 µM); IC50 (Hep-2): 3.11 mg/L (≈ 6.47 µM); IC90 (Hep-2): 13.2 mg/L (≈ 27.4 µM); IC50 (MGC-803): 1.39 mg/L (≈ 2.89 µM); IC90 (MGC-803): 3.89 mg/L (≈ 8.09 µM); IC50 (Hela): 1.45 mg/L (≈ 3.02 µM); IC90 (Hela): 3.9 mg/L (≈ 8.12 µM)
C=C1C(=O)[C@]23[C@H](OC(=O)c4ccccc4)[C@H]1CC[C@H]2[C@@]12CO[C@@]3(O)[C@@H](O)[C@@H]1C(C)(C)CCC2=O [BS-OR-001]	0.41 (≈ 0.879 µM)	1.89 (≈ 4.05 µM)	0.72 (≈ 1.54 µM)	1.86 (≈ 3.99 µM)	0.6 (≈ 1.29 µM)	1.73 (≈ 3.71 µM)	1.21 (≈ 2.59 µM)	5.47 (≈ 11.7 µM)	1.12 (≈ 2.4 µM)	3.79 (≈ 8.12 µM)	0.98 (≈ 2.1 µM)	10.6 (≈ 22.7 µM)	1.67 (≈ 3.58 µM)	3.8 (≈ 8.15 µM)	1.79 (≈ 3.84 µM)	6.42 (≈ 13.8 µM)	1.67 (≈ 3.58 µM)	3.8 (≈ 8.15 µM)	0.47 (≈ 1.01 µM)	0.99 (≈ 2.12 µM)	IC50 (A549): 2.6 mg/L (≈ 5.57 µM); IC90 (A549): 6.08 mg/L (≈ 13 µM); IC50 (U87-MG): 0.8 mg/L (≈ 1.71 µM); IC90 (U87-MG): 2.36 mg/L (≈ 5.06 µM); IC50 (RKO): 0.46 mg/L (≈ 0.986 µM); IC90 (RKO): 0.94 mg/L (≈ 2.01 µM); IC50 (H9): 0.45 mg/L (≈ 0.965 µM); IC90 (H9): 0.95 mg/L (≈ 2.04 µM); IC50 (Jurkat): 0.68 mg/L (≈ 1.46 µM); IC90 (Jurkat): 2.63 mg/L (≈ 5.64 µM); IC50 (NB4): 0.14 mg/L (≈ 0.3 µM); IC90 (NB4): 0.47 mg/L (≈ 1.01 µM); IC50 (CNE): 1.41 mg/L (≈ 3.02 µM); IC90 (CNE): 5.45 mg/L (≈ 11.7 µM); IC50 (Hep-2): 1.64 mg/L (≈ 3.52 µM); IC90 (Hep-2): 7.7 mg/L (≈ 16.5 µM); IC50 (MGC-803): 0.88 mg/L (≈ 1.89 µM); IC90 (MGC-803): 11 mg/L (≈ 23.5 µM); IC50 (Hela): 1.65 mg/L (≈ 3.54 µM); IC90 (Hela): 4.67 mg/L (≈ 10 µM)
C=C1C(=O)[C@]23[C@H](O)[C@H]1CC[C@H]2[C@@]12CO[C@]3(O)[C@@H](O)[C@@H]1C(C)(C)CC[C@@H]2O [OR, Oridonin]	2.73 (≈ 7.49 µM)	5.68 (≈ 15.6 µM)	1.32 (≈ 3.62 µM)	3.72 (≈ 10.2 µM)	1.32 (≈ 3.62 µM)	3.46 (≈ 9.49 µM)	3.31 (≈ 9.08 µM)	6.86 (≈ 18.8 µM)	5.06 (≈ 13.9 µM)	12.9 (≈ 35.5 µM)	6.77 (≈ 18.6 µM)	13.1 (≈ 36 µM)	7.94 (≈ 21.8 µM)	13 (≈ 35.6 µM)	9.1 (≈ 25 µM)	16 (≈ 43.9 µM)	7.94 (≈ 21.8 µM)	13 (≈ 35.6 µM)	1.86 (≈ 5.1 µM)	5.6 (≈ 15.4 µM)	IC50 (A549): 13.7 mg/L (≈ 37.6 µM); IC90 (A549): > 16 mg/L; IC50 (U87-MG): 2.58 mg/L (≈ 7.08 µM); IC90 (U87-MG): 6.67 mg/L (≈ 18.3 µM); IC50 (RKO): 2.24 mg/L (≈ 6.15 µM); IC90 (RKO): 3.96 mg/L (≈ 10.9 µM); IC50 (H9): 1.36 mg/L (≈ 3.73 µM); IC90 (H9): 3.57 mg/L (≈ 9.8 µM); IC50 (Jurkat): 1.89 mg/L (≈ 5.19 µM); IC90 (Jurkat): 3.95 mg/L (≈ 10.8 µM); IC50 (NB4): 0.78 mg/L (≈ 2.14 µM); IC90 (NB4): 2.4 mg/L (≈ 6.59 µM); IC50 (CNE): 5.45 mg/L (≈ 15 µM); IC90 (CNE): 10.5 mg/L (≈ 28.9 µM); IC50 (Hep-2): 4.66 mg/L (≈ 12.8 µM); IC90 (Hep-2): 7.99 mg/L (≈ 21.9 µM); IC50 (MGC-803): 5.88 mg/L (≈ 16.1 µM); IC90 (MGC-803): 7.95 mg/L (≈ 21.8 µM); IC50 (Hela): 5.22 mg/L (≈ 14.3 µM); IC90 (Hela): 10.7 mg/L (≈ 29.4 µM)
